Measured values reported in PubChem BioAssay AID248 (DTP/NCI, 2004).
Several values for one entry are separate records, joined by “and”; a condition that tells them apart may be missing. Equal entries are not always repeated. Inconclusive results and toxic doses are left out.

Test system: L1210 leukemia ip in BDF1 mice, survival T/C
Experiment: NCI In Vivo Anticancer Drug Screen. Data for tumor model L1210 Leukemia (intraperitoneal) in B6D2F1 (BDF1) mice
Settings: higher = longer survival
Outline: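 Each compound was tested against a transplantable tumor grown in mice. The endpoint was survival, with treated animals benchmarked against vehicle controls as a simple ratio.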

[1] = endpoint: mean survival time, dose: 75.0 mg/kg/injection, schedule: Q01DX001 (ip), vehicle: saline
[2] = endpoint: mean survival time, dose: 100.0 mg/kg/injection, schedule: Q01DX001 (ip), vehicle: saline
[3] = endpoint: mean survival time, dose: 200.0 mg/kg/injection, schedule: Q01DX009 (ip), vehicle: saline with Tween-80
[4] = endpoint: mean survival time, dose: 100.0 mg/kg/injection, schedule: Q01DX009 (ip), vehicle: saline
[5] = endpoint: mean survival time, dose: 200.0 mg/kg/injection, schedule: Q01DX009 (ip), vehicle: saline

## CC1=CCC2C(C)(C)CCCC2(C)C1CO (centres undefined)
[1]
  T/C: 98 % of control
endpoint: mean survival time, dose: 150.0 mg/kg/injection, schedule: Q01DX001 (ip), vehicle: saline
  T/C: 100 % of control
endpoint: mean survival time, dose: 300.0 mg/kg/injection, schedule: Q01DX001 (ip), vehicle: saline
  T/C: 95 % of control

## CC/C(=C(/CC)c1ccc(O)cc1)c1ccc(O)cc1
endpoint: mean survival time, dose: 6.44 mg/kg/injection, schedule: Q01DX Z (sc), vehicle: steriod suspending solution
  T/C: 98 % of control
endpoint: mean survival time, dose: 12.88 mg/kg/injection, schedule: Q01DX Z (sc), vehicle: steriod suspending solution
  T/C: 109 % of control
endpoint: mean survival time, dose: 25.0 mg/kg/injection, schedule: Q01DX009 (ip), vehicle: carboxymethylcellulose (CMC)
  T/C: 87 % of control
endpoint: mean survival time, dose: 25.75 mg/kg/injection, schedule: Q01DX Z (sc), vehicle: steriod suspending solution
  T/C: 107 % of control
endpoint: mean survival time, dose: 50.0 mg/kg/injection, schedule: Q01DX001 (ip), vehicle: saline
  T/C: 90 % of control
endpoint: mean survival time, dose: 50.0 mg/kg/injection, schedule: Q01DX009 (ip), vehicle: carboxymethylcellulose (CMC)
  T/C: 94 % of control
endpoint: mean survival time, dose: 51.5 mg/kg/injection, schedule: Q01DX Z (sc), vehicle: steriod suspending solution
  T/C: 100 % of control
[2]
  T/C: 94 % of control
endpoint: mean survival time, dose: 100.0 mg/kg/injection, schedule: Q01DX009 (ip), vehicle: carboxymethylcellulose (CMC)
  T/C: 95 % of control
endpoint: mean survival time, dose: 200.0 mg/kg/injection, schedule: Q01DX001 (ip), vehicle: saline
  T/C: 95 % of control
endpoint: mean survival time, dose: 200.0 mg/kg/injection, schedule: Q01DX009 (ip), vehicle: carboxymethylcellulose (CMC)
  T/C: 91 % of control
endpoint: mean survival time, dose: 400.0 mg/kg/injection, schedule: Q01DX001 (ip), vehicle: saline
  T/C: 87 % of control
endpoint: median survival time, dose: 8.0 mg/kg/injection, schedule: Q03HX016 (ip), vehicle: saline with Tween-80
  T/C: 97 % of control
endpoint: median survival time, dose: 8.0 mg/kg/injection, schedule: Q03HX024 (ip), vehicle: saline with Tween-80
  T/C: 98 % of control
endpoint: median survival time, dose: 12.5 mg/kg/injection, schedule: Q01DX009 (sc), vehicle: steriod suspending solution
  T/C: 100 % of control and 111 % of control
endpoint: median survival time, dose: 16.0 mg/kg/injection, schedule: Q01DX009 (ip), vehicle: saline with Tween-80
  T/C: 113 % of control
endpoint: median survival time, dose: 16.0 mg/kg/injection, schedule: Q03HX008 (ip), vehicle: saline with Tween-80
  T/C: 101 % of control
endpoint: median survival time, dose: 16.0 mg/kg/injection, schedule: Q03HX016 (ip), vehicle: saline with Tween-80
  T/C: 97 % of control
endpoint: median survival time, dose: 16.0 mg/kg/injection, schedule: Q03HX024 (ip), vehicle: saline with Tween-80
  T/C: 91 % of control
endpoint: median survival time, dose: 25.0 mg/kg/injection, schedule: Q01DX009 (sc), vehicle: steriod suspending solution
  T/C: 100 % of control and 106 % of control
endpoint: median survival time, dose: 32.0 mg/kg/injection, schedule: Q01DX009 (ip), vehicle: saline with Tween-80
  T/C: 110 % of control
endpoint: median survival time, dose: 32.0 mg/kg/injection, schedule: Q03HX008 (ip), vehicle: saline with Tween-80
  T/C: 97 % of control
endpoint: median survival time, dose: 32.0 mg/kg/injection, schedule: Q03HX016 (ip), vehicle: saline with Tween-80
  T/C: 97 % of control
endpoint: median survival time, dose: 32.0 mg/kg/injection, schedule: Q03HX024 (ip), vehicle: saline with Tween-80
  T/C: 98 % of control
endpoint: median survival time, dose: 50.0 mg/kg/injection, schedule: Q01DX009 (sc), vehicle: steriod suspending solution
  T/C: 100 % of control and 105 % of control
endpoint: median survival time, dose: 64.0 mg/kg/injection, schedule: Q01DX009 (ip), vehicle: saline with Tween-80
  T/C: 103 % of control
endpoint: median survival time, dose: 64.0 mg/kg/injection, schedule: Q03HX008 (ip), vehicle: saline with Tween-80
  T/C: 103 % of control
endpoint: median survival time, dose: 64.0 mg/kg/injection, schedule: Q03HX016 (ip), vehicle: saline with Tween-80
  T/C: 100 % of control
endpoint: median survival time, dose: 64.0 mg/kg/injection, schedule: Q03HX024 (ip), vehicle: saline with Tween-80
  T/C: 94 % of control
endpoint: median survival time, dose: 64.0 mg/kg/injection, schedule: Q04DX003 (ip), vehicle: saline with Tween-80
  T/C: 100 % of control
endpoint: median survival time, dose: 64.0 mg/kg/injection, schedule: Q08DX002 (ip), vehicle: saline with Tween-80
  T/C: 106 % of control
endpoint: median survival time, dose: 100.0 mg/kg/injection, schedule: Q01DX009 (sc), vehicle: steriod suspending solution
  T/C: 100 % of control and 105 % of control
endpoint: median survival time, dose: 128.0 mg/kg/injection, schedule: Q01DX001 (ip), vehicle: saline with Tween-80
  T/C: 107 % of control
endpoint: median survival time, dose: 128.0 mg/kg/injection, schedule: Q01DX009 (ip), vehicle: saline with Tween-80
  T/C: 102 % of control
endpoint: median survival time, dose: 128.0 mg/kg/injection, schedule: Q04DX003 (ip), vehicle: saline with Tween-80
  T/C: 101 % of control
endpoint: median survival time, dose: 128.0 mg/kg/injection, schedule: Q08DX002 (ip), vehicle: saline with Tween-80
  T/C: 104 % of control
endpoint: median survival time, dose: 256.0 mg/kg/injection, schedule: Q01DX001 (ip), vehicle: saline with Tween-80
  T/C: 109 % of control
endpoint: median survival time, dose: 256.0 mg/kg/injection, schedule: Q04DX003 (ip), vehicle: saline with Tween-80
  T/C: 107 % of control
endpoint: median survival time, dose: 256.0 mg/kg/injection, schedule: Q08DX002 (ip), vehicle: saline with Tween-80
  T/C: 98 % of control
endpoint: median survival time, dose: 512.0 mg/kg/injection, schedule: Q01DX001 (ip), vehicle: saline with Tween-80
  T/C: 108 % of control
endpoint: median survival time, dose: 512.0 mg/kg/injection, schedule: Q08DX002 (ip), vehicle: saline with Tween-80
  T/C: 92 % of control
endpoint: median survival time, dose: 1024.0 mg/kg/injection, schedule: Q08DX002 (ip), vehicle: saline with Tween-80
  T/C: 102 % of control
endpoint: median survival time, dose: 2048.0 mg/kg/injection, schedule: Q08DX002 (ip), vehicle: saline with Tween-80
  T/C: 102 % of control

## Cc1cccc2c1OC(=O)CCC21CCCCC1=O (centres undefined)
endpoint: mean survival time, dose: 100.0 mg/kg/injection, schedule: Q01DX009 (ip), vehicle: saline with Tween-80
  T/C: 101 % of control
[3]
  T/C: 98 % of control
endpoint: mean survival time, dose: 400.0 mg/kg/injection, schedule: Q01DX009 (ip), vehicle: saline with Tween-80
  T/C: 97 % of control

## C=CCN(C)N=Nc1ccccc1C(N)=O
endpoint: mean survival time, dose: 88.0 mg/kg/injection, schedule: Q01DX009 (ip), vehicle: saline with Tween-80
  T/C: 158 % of control
endpoint: mean survival time, dose: 88.0 mg/kg/injection, schedule: Q04DX003 (ip), vehicle: saline with Tween-80
  T/C: 122 % of control
endpoint: mean survival time, dose: 100.0 mg/kg/injection, schedule: Q04DX003 (ip), vehicle: saline with Tween-80
  T/C: 116 % of control
endpoint: mean survival time, dose: 133.0 mg/kg/injection, schedule: Q01DX009 (ip), vehicle: saline with Tween-80
  T/C: 150 % of control
endpoint: mean survival time, dose: 176.0 mg/kg/injection, schedule: Q01DX001 (ip), vehicle: saline with Tween-80
  T/C: 109 % of control
[3]
  T/C: 95 % of control

## CCN(CCO)C(=O)C1C(c2ccccc2)C1c1ccccc1 (centres undefined)
endpoint: mean survival time, dose: 100.0 mg/kg/injection, schedule: Q04DX002 (ip), vehicle: Klucel (hydroxypropylcellulose) (HPC)
  T/C: 97 % of control
endpoint: mean survival time, dose: 200.0 mg/kg/injection, schedule: Q04DX002 (ip), vehicle: Klucel (hydroxypropylcellulose) (HPC)
  T/C: 100 % of control
endpoint: mean survival time, dose: 400.0 mg/kg/injection, schedule: Q04DX002 (ip), vehicle: Klucel (hydroxypropylcellulose) (HPC)
  T/C: 90 % of control

## CCC/C=C/CCN1CC1
endpoint: mean survival time, dose: 20.0 mg/kg/injection, schedule: Q01DX001 (ip), vehicle: saline
  T/C: 97 % of control
endpoint: mean survival time, dose: 40.0 mg/kg/injection, schedule: Q01DX001 (ip), vehicle: saline
  T/C: 97 % of control
[2]
  T/C: 86 % of control

## N#Cc1c(CBr)ccc2ccccc12
[1]
  T/C: 92 % of control

## Cc1ccc(Cl)cc1NC(=O)C(Cl)Cl
endpoint: mean survival time, dose: 100.0 mg/kg/injection, schedule: Q01DX009 (ip), vehicle: Klucel (hydroxypropylcellulose) (HPC)
  T/C: 92 % of control
endpoint: mean survival time, dose: 200.0 mg/kg/injection, schedule: Q01DX009 (ip), vehicle: Klucel (hydroxypropylcellulose) (HPC)
  T/C: 89 % of control
endpoint: mean survival time, dose: 400.0 mg/kg/injection, schedule: Q01DX009 (ip), vehicle: Klucel (hydroxypropylcellulose) (HPC)
  T/C: 90 % of control

## ClC1=CC2CCC(C2)C1Cl (centres undefined)
[4]
  T/C: 106 % of control
endpoint: mean survival time, dose: 100.0 mg/kg/injection, schedule: Q04DX003 (ip), vehicle: acetone
  T/C: 88 % of control
[5]
  T/C: 102 % of control
endpoint: mean survival time, dose: 200.0 mg/kg/injection, schedule: Q04DX003 (ip), vehicle: acetone
  T/C: 88 % of control
endpoint: mean survival time, dose: 400.0 mg/kg/injection, schedule: Q01DX009 (ip), vehicle: saline
  T/C: 103 % of control
endpoint: mean survival time, dose: 400.0 mg/kg/injection, schedule: Q04DX003 (ip), vehicle: acetone
  T/C: 90 % of control

## C/C(=N\NC(=S)Nc1cc(Cl)ccc1Cl)c1ccc(O)cc1O
endpoint: mean survival time, dose: 100.0 mg/kg/injection, schedule: Q01DX001 (ip), vehicle: Klucel (hydroxypropylcellulose) (HPC)
  T/C: 88 % of control
endpoint: mean survival time, dose: 200.0 mg/kg/injection, schedule: Q01DX001 (ip), vehicle: Klucel (hydroxypropylcellulose) (HPC)
  T/C: 96 % of control
endpoint: mean survival time, dose: 400.0 mg/kg/injection, schedule: Q01DX001 (ip), vehicle: Klucel (hydroxypropylcellulose) (HPC)
  T/C: 95 % of control

## CC(C)(C)SCCC(=O)NC1CCCCC1
endpoint: mean survival time, dose: 50.0 mg/kg/injection, schedule: Q01DX009 (ip), vehicle: saline
  T/C: 90 % of control
[4]
  T/C: 95 % of control
endpoint: mean survival time, dose: 100.0 mg/kg/injection, schedule: Q04DX003 (ip), vehicle: saline
  T/C: 106 % of control
[5]
  T/C: 93 % of control
endpoint: mean survival time, dose: 200.0 mg/kg/injection, schedule: Q04DX003 (ip), vehicle: saline
  T/C: 101 % of control
